From patent publication US11684623B2, “Soluble melatonin tripartate adduct for the prevention and treatment of rare and severe eye sight-threatening conditions and neuro-ophthalmic disorders” (WORPHMED SRL, priority 2020, dated 2023)

Assay: Solubility in water according to USP and EP
Type: physicochemical
Text: wherein melatonin is complexed with adenosine and glycine. Adenosine is a purine nucleoside consisting of adenine attached to a ribofuranose moiety via a β-N9-glycosidic bond and the low-chain amino acid glycine is a C2 amino acid having a single hydrogen atom as its side chain.

## COc1ccc2[nH]cc(CCNC(C)=O)c2c1 [melatonin, N-acetyl-5-methoxytryptamine]
  Solubility in water, Results: 0.1 mg/1.0 ml
